# Laboratory results from the Kinase Knowledgebase extract (Sharma et al. 2016).
# Where “and” joins values, the source holds several entries; their conditions need not be identical. Identical values can stand only once.
# Molecular target: MAPK14 (UniProt Q16539)
# Test: Inhibition of MAPK14 Kinase Activity
# MAPK14, sequence (Q16539 whole entry, looked up): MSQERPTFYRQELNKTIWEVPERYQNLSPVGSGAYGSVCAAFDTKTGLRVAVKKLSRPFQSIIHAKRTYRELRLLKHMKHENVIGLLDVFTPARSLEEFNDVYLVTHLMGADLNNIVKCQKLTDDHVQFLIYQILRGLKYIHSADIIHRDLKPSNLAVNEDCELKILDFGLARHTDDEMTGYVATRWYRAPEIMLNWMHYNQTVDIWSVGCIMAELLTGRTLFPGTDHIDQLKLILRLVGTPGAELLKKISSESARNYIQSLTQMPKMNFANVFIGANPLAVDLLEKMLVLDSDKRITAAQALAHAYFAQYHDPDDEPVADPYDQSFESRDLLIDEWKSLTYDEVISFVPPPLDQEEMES
row,SMILES,IC50
1,Cn1nc(C(C)(C)C)cc1NC(=O)Nc1ccc(OC2CCN(C(=O)c3sccc3Cl)CC2)cc1,< 5 µM
2,Cn1nc(C(C)(C)C)cc1NC(=O)Nc1cc(F)cc(OC2CCN(C(=O)C(Cl)(Cl)Cl)CC2)c1,< 5 µM
3,Cn1nc(C(C)(C)C)cc1NC(=O)Nc1ccc(CN2CCN(C(=O)c3c(F)cccc3F)CC2)cc1,0.01 µM and < 5 µM
4,Cn1nc(C(C)(C)C)cc1NC(=O)Nc1cc(F)cc(OC2CCN(C(=O)c3ccccc3Cl)CC2)c1,< 5 µM
5,Cc1ccc(-n2nc(C(C)(C)C)cc2NC(=O)Nc2ccc(N3CCN(C(=O)C4CCCNC4)CC3)cc2)cc1 (stereo unspecified),< 5 µM
6,Cn1nc(C(C)(C)C)cc1NC(=O)Nc1cc(F)cc(OC2CCN(C(=O)c3cc4ccccc4[nH]3)CC2)c1,< 5 µM
7,Cc1ccc(-n2nc(C(C)(C)C)cc2NC(=O)Nc2ccc(N3CCN(C(=O)C(C)C)CC3)cc2)cc1,< 5 µM
8,Cn1nc(C(C)(C)C)cc1NC(=O)Nc1cccc(OC2CCN(C(=O)c3sccc3Cl)CC2)c1,< 5 µM
9,Cc1ccc(-n2nc(C(C)(C)C)cc2NC(=O)Nc2ccc(N3CCN(C(=O)c4c(Cl)cccc4Cl)CC3)cc2)cc1,< 5 µM
10,Cn1nc(C(C)(C)C)cc1NC(=O)Nc1ccc(N2CCN(C(=O)c3c(Cl)cccc3Cl)CC2)cc1,< 5 µM
11,Cn1nc(C(C)(C)C)cc1NC(=O)Nc1cccc(OC2CCN(C(=O)c3ccc(Br)s3)CC2)c1,< 5 µM
12,Cc1ccc(-n2nc(C(C)(C)C)cc2NC(=O)Nc2ccc(N3CCN(C(=O)C4CCC4)CC3)cc2)cc1,< 5 µM
13,CC(C)(C)c1cc(NC(=O)Nc2ccc(OC3CCN(C(=O)c4ccccc4Cl)CC3)cc2)[nH]n1,< 5 µM
14,COc1ccc(C(=O)N2CCC(Oc3cccc(NC(=O)Nc4cc(C(C)(C)C)nn4C)c3)CC2)c(OC)n1,< 5 µM
15,Cc1ccc(-n2nc(C(C)(C)C)cc2NC(=O)Nc2ccc(CN3CCN(C(=O)C4CC4)CC3)cc2)cc1,< 5 µM
16,CN1CCN(Cc2ccc(C(=O)N3CCC(Oc4cc(F)cc(NC(=O)Nc5cc(C(C)(C)C)nn5C)c4)CC3)cc2)CC1,< 5 µM
17,Cn1nc(C(C)(C)C)cc1NC(=O)Nc1ccc(OC2CCN(C(=O)C(C)(C)C)CC2)cc1,< 5 µM
18,Cn1nc(C(C)(C)C)cc1NC(=O)Nc1ccc(CN2CCN(C(=O)c3ccncc3)CC2)cc1,< 5 µM
19,Cn1nc(C(C)(C)C)cc1NC(=O)Nc1ccc(OC2CCN(C(=O)c3c(F)cccc3F)CC2)cc1,< 5 µM
20,Cc1ccc(-n2nc(C(C)(C)C)cc2NC(=O)Nc2ccc(N3CCN(C(=O)c4c(F)cccc4F)CC3)cc2)cc1,< 5 µM
21,Cn1nc(C(C)(C)C)cc1NC(=O)Nc1ccc(OC2CCN(C(=O)C3(c4ccccc4)CC3)CC2)cc1,< 5 µM

row,SMILES,IC50
1,Cc1ccc(-n2nc(C(C)(C)C)cc2NC(=O)Nc2ccc(N3CCN(S(=O)(=O)C(C)C)CC3)cc2)cc1,< 5 µM
2,CC(C)(C)c1cc(NC(=O)Nc2ccc(CN3CCN(C(=O)c4c(F)cccc4F)CC3)c(F)c2)n(C(C)(C)C)n1,< 5 µM
3,Cc1ccc(OC2CCN(C(=O)c3ccccc3Cl)CC2)cc1NC(=O)Nc1cc(C(C)(C)C)nn1C,< 5 µM
4,Cc1ccc(-n2nc(C(C)(C)C)cc2NC(=O)Nc2cc(F)cc(OC3CCN(C(=O)C4CC4)CC3)c2)cc1,< 5 µM
5,Cc1ccsc1C(=O)N1CCC(Oc2cc(F)cc(NC(=O)Nc3cc(C(C)(C)C)nn3C)c2)CC1,< 5 µM
6,Cn1nc(C(C)(C)C)cc1NC(=O)Nc1ccc(CN2CCN(C(=O)c3c(F)cccc3F)CC2)c(F)c1,< 5 µM
7,Cc1ccsc1C(=O)N1CCC(Oc2ccc(NC(=O)Nc3cc(C(C)(C)C)nn3C)cc2)CC1,< 5 µM
8,CN(C)CCOc1ccc(C(=O)N2CCC(Oc3cc(F)cc(NC(=O)Nc4cc(C(C)(C)C)nn4C)c3)CC2)cc1,< 5 µM
9,COc1ccccc1C(=O)N1CCN(Cc2ccc(NC(=O)Nc3cc(C(C)(C)C)nn3C)cc2)CC1,< 5 µM
10,Cn1nc(C(C)(C)C)cc1NC(=O)Nc1cccc(OC2CCN(C(=O)c3ccccc3OC(F)(F)F)CC2)c1,< 5 µM
11,Cc1ccc(-n2nc(C(C)(C)C)cc2NC(=O)Nc2cc(F)cc(OC3CCN(C(=O)c4ccccc4F)CC3)c2)cc1,< 5 µM
12,COc1ccc(C(=O)N2CCC(Oc3ccc(NC(=O)Nc4cc(C(C)(C)C)nn4C)cc3)CC2)cn1,< 5 µM
13,Cn1nc(C(C)(C)C)cc1NC(=O)Nc1cccc(OC2CCN(C(=O)c3ccccc3C(F)(F)F)CC2)c1,< 5 µM
14,Cn1nc(C(C)(C)C)cc1NC(=O)Nc1cc(F)cc(OC2CCN(C(=O)c3ccccc3C(F)(F)F)CC2)c1,< 5 µM
15,Cc1ccc(-n2nc(C(C)(C)C)cc2NC(=O)Nc2ccc(N3CCN(C(=O)C4CC4)CC3)cc2)cc1,< 5 µM
16,CC(C)n1nc(C(C)(C)C)cc1NC(=O)Nc1ccc(CN2CCN(C(=O)c3ccc(F)cc3F)CC2)c(F)c1,< 5 µM
17,Cc1ccc(-n2nc(C(C)(C)C)cc2NC(=O)Nc2ccc(CN3CCN(C(=O)c4c(Cl)cccc4Cl)CC3)cc2)cc1,< 5 µM
18,COc1ccc(C(=O)N2CCC(Oc3ccc(NC(=O)Nc4cc(C(C)(C)C)nn4C)cc3)CC2)c(OC)n1,< 5 µM
19,Cc1ccc(-n2nc(C(C)(C)C)cc2NC(=O)Nc2ccc(N3CCN(C(=O)CC4CCCC4)CC3)cc2)cc1,< 5 µM
20,Cc1ccc(-n2nc(C(C)(C)C)cc2NC(=O)Nc2ccc(N3CCN(C(=O)C4CCOC4)CC3)cc2)cc1 (stereo unspecified),< 5 µM
